Measurements published in patent US8877748B2, “Heterocyclic fused anthraquinone derivatives, manufacturing method and pharmaceutical composition using thereof” (National Defense Medical Center, priority 2012, dated 2014).

Tests used:
K562cell line = test: NCI one-dose screening, leukemia K562; type: cell-based, human; details: 10 μM
SK-MEL-28 = test: NCI one-dose screening, melanoma SK-MEL-28; type: cell-based, human; details: 10 μM
HT29 = test: NCI one-dose screening, colon cancer HT29; type: cell-based, human; details: 10 μM
TK-10 = test: NCI one-dose screening, renal cancer TK-10; type: cell-based, human; details: 10 μM
SF-539 = test: NCI one-dose screening, CNS cancer SF-539; type: cell-based, human; details: 10 μM
[1] = tested on: PC-3 prostate cancer cell line; test: SRB assay cell viability, PC-3 prostate cancer cell line; type: cell-based, human; details: Homo sapiens, PC-3 prostate cancer cell line, Table II prints no unit, μM printed, read-out: SRB assay: 50% inhibition of cancer cell proliferation of sample concentration (IC50) of PC-3 prostate cancer cell line
BT-549 = test: NCI one-dose screening, breast cancer BT-549; type: cell-based, human; details: 10 μM
LOX IMVI = test: NCI one-dose screening, melanoma LOX IMVI; type: cell-based, human; details: 10 μM
NCI-H226 = test: NCI one-dose screening, non-small cell lung cancer NCI-H226; type: cell-based, human; details: 10 μM
MDA-MB-231/ATCC = test: NCI one-dose screening, breast cancer MDA-MB-231/ATCC; type: cell-based, human; details: 10 μM
PC-3 = test: NCI one-dose screening, prostate cancer PC-3; type: cell-based, human; details: 10 μM
KM12 = test: NCI one-dose screening, colon cancer KM12; type: cell-based, human; details: 10 μM
NCI-H460 = test: NCI one-dose screening, non-small cell lung cancer NCI-H460; type: cell-based, human; details: 10 μM
M14 = test: NCI one-dose screening, melanoma M14; type: cell-based, human; details: 10 μM
NCI-H322M = test: NCI one-dose screening, non-small cell lung cancer NCI-H322M; type: cell-based, human; details: 10 μM; Non-small cell lung cancer
T-47D = test: NCI one-dose screening, breast cancer T-47D; type: cell-based, human; details: 10 μM
MDA-MB-468 = test: NCI one-dose screening, breast cancer MDA-MB-468; type: cell-based, human; details: 10 μM
SF-295 = test: NCI one-dose screening, CNS cancer SF-295; type: cell-based, human; details: 10 μM
HOP-92 = test: NCI one-dose screening, non-small cell lung cancer HOP-92; type: cell-based, human; details: 10 μM
NCl/ADR-RES = test: NCI one-dose screening, breast cancer NCl/ADR-RES; type: cell-based, human; details: 10 μM; listed under Ovarian cancer
UACC-62 = test: NCI one-dose screening, melanoma UACC-62; type: cell-based, human; details: 10 μM
EKVX = test: NCI one-dose screening, non-small cell lung cancer EKVX; type: cell-based, human; details: 10 μM
HL-60, TB = test: NCI one-dose screening, leukemia HL-60, TB; type: cell-based, human; details: 10 μM
DU145 = test: NCI one-dose screening, prostate cancer DU145; type: cell-based, human; details: 10 μM
HS 578-T = test: NCI one-dose screening, breast cancer HS 578-T; type: cell-based, human; details: 10 μM; Breast cancer
MALME-3M = test: NCI one-dose screening, melanoma MALME-3M; type: cell-based, human; details: 10 μM
NCI-H23 = test: NCI one-dose screening, non-small cell lung cancer NCI-H23; type: cell-based, human; details: 10 μM
RXF, 393 = test: NCI one-dose screening, renal cancer RXF, 393; type: cell-based, human; details: 10 μM
OVCAR-4 = test: NCI one-dose screening, ovarian cancer OVCAR-4; type: cell-based, human; details: 10 μM
SK-MEL-2 = test: NCI one-dose screening, melanoma SK-MEL-2; type: cell-based, human; details: 10 μM
HCC-2998 = test: NCI one-dose screening, colon cancer HCC-2998; type: cell-based, human; details: 10 μM
SNB-75 = test: NCI one-dose screening, CNS cancer SNB-75; type: cell-based, human; details: 10 μM
UO-31 = test: NCI one-dose screening, renal cancer UO-31; type: cell-based, human; details: 10 μM
PRMI-8226 cell line = test: NCI one-dose screening, leukemia PRMI-8226; type: cell-based, human; details: 10 μM
SK-MEL-5 = test: NCI one-dose screening, melanoma SK-MEL-5; type: cell-based, human; details: 10 μM
A549/ATCC = test: NCI one-dose screening, non-small cell lung cancer A549/ATCC; type: cell-based, human; details: 10 μM
786-O = test: NCI one-dose screening, renal cancer 786-O; type: cell-based, human; details: 10 μM
OVCAR-3 = test: NCI one-dose screening, ovarian cancer OVCAR-3; type: cell-based, human; details: 10 μM
ACHN = test: NCI one-dose screening, renal cancer ACHN; type: cell-based, human; details: 10 μM
MOLT-4 = test: NCI one-dose screening, leukemia MOLT-4; type: cell-based, human; details: 10 μM
COLO 205 = test: NCI one-dose screening, colon cancer COLO 205; type: cell-based, human; details: 10 μM
IGROV1 = test: NCI one-dose screening, ovarian cancer IGROV1; type: cell-based, human; details: 10 μM
SR = test: NCI one-dose screening, leukemia SR; type: cell-based, human; details: 10 μM
CCRF-CEM = test: NCI screening platform one-dose single concentration screening, leukemia CCRF-CEM; type: cell-based, human; details: 10 μM
NCI-H522 = test: NCI one-dose screening, non-small cell lung cancer NCI-H522; type: cell-based, human; details: 10 μM
MDA, -MB-435 = test: NCI one-dose screening, breast cancer MDA, -MB-435; type: cell-based, human; details: 10 μM; listed under Melanoma
SF-268 = test: NCI one-dose screening, CNS cancer SF-268; type: cell-based, human; details: 10 μM
human tumor cell lines = test: NCI one-dose screening, Mean / Delta / Range of growth percent over all tested cell lines; type: cell-based; details: 10 μM
HCT-15 = test: NCI one-dose screening, colon cancer HCT-15; type: cell-based, human; details: 10 μM
U251 = test: NCI one-dose screening, CNS cancer U251; type: cell-based, human; details: 10 μM
HCT-116 = test: NCI one-dose screening, colon cancer HCT-116; type: cell-based, human; details: 10 μM
MCF7 = test: NCI one-dose screening, breast cancer MCF7; type: cell-based, human; details: 10 μM
UACC-257 = test: NCI one-dose screening, melanoma UACC-257; type: cell-based, human; details: 10 μM
OVCAR-8 = test: NCI one-dose screening, ovarian cancer OVCAR-8; type: cell-based, human; details: 10 μM
SNB-19 = test: NCI one-dose screening, CNS cancer SNB-19; type: cell-based, human; details: 10 μM
CAKI-1 = test: NCI one-dose screening, renal cancer CAKI-1; type: cell-based, human; details: 10 μM
SN12C = test: NCI one-dose screening, renal cancer SN12C; type: cell-based, human; details: 10 μM
HOP-62 = test: NCI one-dose screening, non-small cell lung cancer HOP-62; type: cell-based, human; details: 10 μM
OVCAR-5 = test: NCI one-dose screening, ovarian cancer OVCAR-5; type: cell-based, human; details: 10 μM

## O=C1c2ccccc2C(=O)c2c1cc(Nc1ccc(Cl)cc1)c1nsnc21 [C60, 4-(4-chloro-phenylamino)anthra[2,1-c] [1,2,5]thiadiazol-6,11-dione]
K562cell line
  Growth Percent K562: 32.82%
SK-MEL-28
  Growth Percent SK-MEL-28: 77.13%
HT29
  Growth Percent HT29: 91.07%
TK-10
  Growth Percent TK-10: 100.37%
SF-539
  Growth Percent SF-539: 69.85%
[1]
  IC50: 9.5 µM
BT-549
  Growth Percent BT-549: 96.78%
LOX IMVI
  Growth Percent LOX IMVI: 27.09%
NCI-H226
  Growth Percent NCI-H226: 66.43%
MDA-MB-231/ATCC
  Growth Percent MDA-MB-231/ATCC: 57.00%
PC-3
  Growth Percent PC-3: 42.48%
KM12
  Growth Percent KM12: 71.40%
NCI-H460
  Growth Percent NCI-H460: 29.27%
M14
  Growth Percent M14: 106.75%
NCI-H322M
  Growth Percent NCI-H322M: 91.20%
T-47D
  Growth Percent T-47D: 65.23%
MDA-MB-468
  Growth Percent MDA-MB-468: 32.52%
SF-295
  Growth Percent SF-295: 78.76%
HOP-92
  Growth Percent HOP-92: 88.03%
NCl/ADR-RES
  Growth Percent NCI/ADR-RES: 55.91%
UACC-62
  Growth Percent UACC-62: 64.65%
EKVX
  Growth Percent EKVX: 81.16%
HL-60, TB
  Growth Percent HL-60(TB): 23.13%
DU145
  Growth Percent DU145: 87.28%
HS 578-T
  Growth Percent HS 578T: 76.50%
MALME-3M
  Growth Percent MALME-3M: 61.29%
NCI-H23
  Growth Percent NCI-H23: 58.67%
RXF, 393
  Growth Percent RXF 393: 66.60%
OVCAR-4
  Growth Percent OVCAR-4: 9.58%
SK-MEL-2
  Growth Percent SK-MEL-2: 84.09%
HCC-2998
  Growth Percent HCC-2998: 91.26%
SNB-75
  Growth Percent SNB-75: 69.41%
UO-31
  Growth Percent UO-31: 49.04%
PRMI-8226 cell line
  Growth Percent RPMI-8226: 36.51%
SK-MEL-5
  Growth Percent SK-MEL-5: 29.92%
A549/ATCC
  Growth Percent A549/ATCC: 72.79%
786-O
  Growth Percent 786-0: 95.95%
OVCAR-3
  Growth Percent OVCAR-3: 76.23%
ACHN
  Growth Percent ACHN: 70.10%
MOLT-4
  Growth Percent MOLT-4: 11.82%
COLO 205
  Growth Percent COLO 205: 94.87%
IGROV1
  Growth Percent IGROV1: 55.18%
SR
  Growth Percent SR: 19.52%
CCRF-CEM
  Growth Percent CCRF-CEM: 44.80%
NCI-H522
  Growth Percent NCI-H522: 49.77%
MDA, -MB-435
  Growth Percent MDA-MB-435: 72.21%
SF-268
  Growth Percent SF-268: 63.91%
Human tumor cell lines; delta over all cell lines
  Growth Percent Delta: 53.61%
Human tumor cell lines; mean over all cell lines
  Growth Percent Mean: 63.19%
Human tumor cell lines; range over all cell lines
  Growth Percent Range: 111.63%
HCT-15
  Growth Percent HCT-15: 37.73%
U251
  Growth Percent U251: 35.47%
HCT-116
  Growth Percent HCT-116: 40.51%
MCF7
  Growth Percent MCF7: 59.01%
UACC-257
  Growth Percent UACC-257: 69.64%
OVCAR-8
  Growth Percent OVCAR-8: 45.71%
SNB-19
  Growth Percent SNB-19: 87.03%
CAKI-1
  Growth Percent CAKI-1: 58.59%
SN12C
  Growth Percent SN12C: 81.98%
HOP-62
  Growth Percent HOP-62: 71.23%
OVCAR-5
  Growth Percent OVCAR-5: 121.21%
